Paper PMC8667040, “COUPY Coumarins as Novel Mitochondria-Targeted Photodynamic Therapy Anticancer Agents” (Journal of Medicinal Chemistry, 2021)

What was measured:
HeLa cells [1] = experiment: Mitochondrial membrane potential, JC-1 flow cytometry; type: cell-based, human; conditions: 24 h; 5 µM for 1 and 2, 0.5 µM for 15
Procedure: MMP was evaluated with the fluorescent probe JC-1 chloride (Promocell). HeLa cells at a density of 1.5 × 10^5 were seeded for 24 h in complete medium on 12-well plates and then treated with indicated concentrations of tested complexes for 24 h. Untreated cells contained maximal concentration of DMSO used in the treatment (0.4%) and were used as a negative control, whereas antimycin A (50 μM) was used as a positive control for mitochondrial dysfunction. After drug exposure, the cells were incubated with JC-1 dye (1 μM) for 20 min and subjected to flow cytometry (FACSCAlibur BecktonDickinson; 10^4 events acquired per sample), using λexc = 488 nm, λem = 530 ± 30 nm (green), and 585 ± 30 nm (red) parameters to discriminate green JC1 monomers (FL1-H channel) and red JC1 aggregates (FL2-H channel). At least two independent experiments were performed (n = 2).
7.- Mitochondrial potential assessment
Figure S10. Flow cytometric mitochondrial membrane potential (MMP) analysis of HeLa cells after 24 h treatment with compounds. Data expressed as representative dot plots and mean ± SD from two independent experiments. A) Untreated cells; B) Antimycin A (50 µM); C) 1 (5 µM); D) 2 (5 µM); E) 15 (0.5 µM). Statistical significance between control and treatments based on *p<0.05, **p<0.01 and ***p<0.001 using […]

HeLa cells [2] = experiment: ROS determination with DCFH-DA by flow cytometry; type: cell-based, human; conditions: 5 μM; for intracellular ROS levels, change compared to control irradiated cells: 1 h dark then 1 h irradiation
Procedure: Further analysis was performed to elucidate the main ROS involved. In addition to singlet oxygen (^1O2), which is produced in type II photochemical reactions, type I processes involve the generation of cytotoxic ROS such as superoxide anions (^•O2^–), hydroxyl radicals (^•OH), hydrogen peroxide (H2O2), and peroxyl radicals (ROO^•).[35] To investigate the type of intracellular ROS produced after irradiation in the presence of coumarins 1, 2, and 15, HeLa cells were incubated first with selective scavengers for each type of ROS and then probed with ROS-sensitive dyes using previously described methodologies.[27],[36] The scavengers used included tiron (5 mM) for ^•O2^–, D-mannitol (Mann; 50 mM) for ^•OH, sodium azide (NaN3; 5 mM) for ^1O2, sodium pyruvate (NaPyr; 10 mM) for H2O2, and Trolox (0.1 mM) for ROO^• species.
ROS were determined using the 2′,7′-dichlorofluorescein diacetate (DCFH-DA) and DHE reagents. HeLa cells were seeded onto 96-well plates at 2 × 10^4 cells/well for 24 h under normoxia (21% O2) or hypoxia (2% O2) in the humidified CO2 incubator. Cells were then cotreated with selective ROS scavengers and with 5 μM of the tested complexes for 1 h. NAC (5 mM) was used as a general scavenger for ROS production. Formation of ^1O2 was prevented using sodium azide (NaN3) at a final concentration of 5 mM; hydroxyl radicals (^•OH) were scavenged using D-Mannitol (Mann) at […]; superoxide anion (^•O2^–) production was reduced using the tiron scavenger (5 mM); generation hydrogen peroxide was prevented using sodium pyruvate (NaPyr) at 10 mM; and peroxyl radical (ROO^•) species were scavenged using 0.1 mM of Trolox. The ROS scavengers remained throughout the experiment. After treatment application, cells were incubated for 1 h in the dark followed by 1 h of irradiation with visible light. After irradiation, the cells were stained using 10 μM of DCFH-DA or, alternatively, DHE for 30 min. Cells were then trypsinized to allow cell capture by the flow cytometer (Fortessa X20) using the 96-well plate adaptation and analyzed using Flowing Software version 2.5.1. The assay was performed at least in two independent experiments (n = 3 per replicate).

CCN(CC)c1ccc2c(c1)O/C(=C(/C#N)c1cc[n+](CC(F)(F)F)cc1)C=C2C [Compound 2]
effect on mitochondrial membrane potential (MMP) (HeLa cells [1]): did not affect MMP
intracellular ROS levels, change compared to control irradiated cells (HeLa cells [2]; normoxia): 2 fold
selective scavenger that reduced ROS generation after irradiation (HeLa cells [2]; hypoxia): Trolox and NaN3
selective scavenger that reduced ROS generation after irradiation (HeLa cells [2]; normoxia): Trolox

CCN(CC)c1ccc2c(c1)O/C(=C(/C#N)c1cc[n+](C)cc1)C=C2C [Compound 1]
effect on mitochondrial membrane potential (MMP) (HeLa cells [1]): did not affect MMP
intracellular ROS levels, change compared to control irradiated cells (HeLa cells [2]; normoxia): 2 fold
selective scavenger that reduced ROS generation after irradiation (HeLa cells [2]; hypoxia): none of the scavengers
selective scavenger that reduced ROS generation after irradiation (HeLa cells [2]; normoxia): Trolox

CCCCCC[n+]1ccc(/C(C#N)=C2/C=C(C)c3ccc(N(CC)CC)cc3O2)cc1 [Compound 15]
effect on mitochondrial membrane potential (MMP) (HeLa cells [1]): induced a great population of cells with depleted MMP
intracellular ROS levels, change compared to control irradiated cells (HeLa cells [2]; normoxia): 2.5 fold
selective scavenger that reduced ROS generation after irradiation (HeLa cells [2]; hypoxia): NaPyr
selective scavenger that reduced ROS generation after irradiation (HeLa cells [2]; normoxia): Trolox
